PubChem BioAssay (NCI)
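Grown in 96-well plates, cells were treated for 48 hours with each compound at five concentrations. Insufficient inhibition: endpoint recorded as highest concentration tested. At the TGI there is no net growth.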

Columns and labels:
Test in all cases: NCI-60 cell line screen, 48 h
786-0 renal = tested on: 786-0 renal
A498 renal = tested on: A498 renal
A549 NSCLC = tested on: A549 NSCLC
ACHN renal = tested on: ACHN renal
BT-549 breast = tested on: BT-549 breast
CCRF-CEM leukemia = tested on: CCRF-CEM leukemia
COLO 205 colon = tested on: COLO 205 colon
DMS 114 small cell lung = tested on: DMS 114 small cell lung
DMS 273 small cell lung = tested on: DMS 273 small cell lung
DU-145 prostate = tested on: DU-145 prostate
EKVX NSCLC = tested on: EKVX NSCLC
HCC-2998 colon = tested on: HCC-2998 colon
HCT-116 colon = tested on: HCT-116 colon
HCT-15 colon = tested on: HCT-15 colon
HL-60(TB) leukemia = tested on: HL-60(TB) leukemia
HOP-18 NSCLC = tested on: HOP-18 NSCLC
HOP-62 NSCLC = tested on: HOP-62 NSCLC
HOP-92 NSCLC = tested on: HOP-92 NSCLC
HS 578T breast = tested on: HS 578T breast
HT29 colon = tested on: HT29 colon
IGROV1 ovarian = tested on: IGROV1 ovarian
K-562 leukemia = tested on: K-562 leukemia
KM12 colon = tested on: KM12 colon
KM20L2 colon = tested on: KM20L2 colon
LOX IMVI melanoma = tested on: LOX IMVI melanoma
LXFL 529 NSCLC = tested on: LXFL 529 NSCLC
M14 melanoma = tested on: M14 melanoma
M19-MEL melanoma = tested on: M19-MEL melanoma
MALME-3M melanoma = tested on: MALME-3M melanoma
MCF7 breast = tested on: MCF7 breast
MDA-MB-231 breast = tested on: MDA-MB-231 breast
MDA-MB-435 = tested on: MDA-MB-435
MDA-N = tested on: MDA-N
MOLT-4 leukemia = tested on: MOLT-4 leukemia
NCI-H226 lung = tested on: NCI-H226 lung
NCI-H23 lung = tested on: NCI-H23 lung
NCI-H460 lung = tested on: NCI-H460 lung
NCI-H522 lung = tested on: NCI-H522 lung
NCI/ADR-RES ovarian = tested on: NCI/ADR-RES ovarian
OVCAR-3 ovarian = tested on: OVCAR-3 ovarian
OVCAR-4 ovarian = tested on: OVCAR-4 ovarian
OVCAR-5 ovarian = tested on: OVCAR-5 ovarian
OVCAR-8 ovarian = tested on: OVCAR-8 ovarian
PC-3 prostate = tested on: PC-3 prostate
RPMI-8226 leukemia = tested on: RPMI-8226 leukemia
RXF 393 renal = tested on: RXF 393 renal
SF-268 CNS = tested on: SF-268 CNS
SF-295 CNS = tested on: SF-295 CNS
SK-MEL-2 melanoma = tested on: SK-MEL-2 melanoma
SK-MEL-28 melanoma = tested on: SK-MEL-28 melanoma
SK-MEL-5 melanoma = tested on: SK-MEL-5 melanoma
SK-OV-3 ovarian = tested on: SK-OV-3 ovarian
SN12C renal = tested on: SN12C renal
SNB-19 CNS = tested on: SNB-19 CNS
SNB-75 CNS = tested on: SNB-75 CNS
SNB-78 CNS = tested on: SNB-78 CNS
SR leukemia = tested on: SR leukemia
SW-620 colon = tested on: SW-620 colon
T-47D breast = tested on: T-47D breast
TK-10 renal = tested on: TK-10 renal
U251 CNS = tested on: U251 CNS
UACC-257 melanoma = tested on: UACC-257 melanoma
UACC-62 melanoma = tested on: UACC-62 melanoma
UO-31 renal = tested on: UO-31 renal
XF 498 CNS = tested on: XF 498 CNS
CAKI-1 renal = tested on: CAKI-1 renal
DLD-1 colon = tested on: DLD-1 colon
SF-539 CNS = tested on: SF-539 CNS

SMILES: COc1ccc(NC(=O)CSc2nnc(-c3ccc(N=Cc4ccc(Cl)cc4)cc3)o2)cc1
- TGI (786-0 renal): > 100 µM
- TGI (A498 renal): > 100 µM
- TGI (A549 NSCLC): > 100 µM
- TGI (ACHN renal): > 86.9 µM
- TGI (BT-549 breast): > 100 µM
- TGI (CCRF-CEM leukemia): > 82.7 µM
- TGI (COLO 205 colon): 44.9 µM
- TGI (DMS 114 small cell lung): 80.1 µM
- TGI (DMS 273 small cell lung): 79.6 µM
- TGI (DU-145 prostate): > 100 µM
- TGI (EKVX NSCLC): > 100 µM
- TGI (HCC-2998 colon): > 100 µM
- TGI (HCT-116 colon): > 49.5 µM
- TGI (HCT-15 colon): 29.1 µM
- TGI (HL-60(TB) leukemia): > 48.8 µM
- TGI (HOP-18 NSCLC): 68.1 µM
- TGI (HOP-62 NSCLC): > 88.6 µM
- TGI (HOP-92 NSCLC): 71.4 µM
- TGI (HS 578T breast): > 100 µM
- TGI (HT29 colon): > 100 µM
- TGI (IGROV1 ovarian): > 100 µM
- TGI (K-562 leukemia): > 100 µM
- TGI (KM12 colon): > 80.9 µM
- TGI (KM20L2 colon): > 100 µM
- TGI (LOX IMVI melanoma): 31.9 µM
- TGI (LXFL 529 NSCLC): > 100 µM
- TGI (M14 melanoma): > 96.3 µM
- TGI (M19-MEL melanoma): 68.1 µM
- TGI (MALME-3M melanoma): > 100 µM
- TGI (MCF7 breast): > 100 µM
- TGI (MDA-MB-231 breast): > 100 µM
- TGI (MDA-MB-435): > 100 µM
- TGI (MDA-N): > 100 µM
- TGI (MOLT-4 leukemia): > 70.2 µM
- TGI (NCI-H226 lung): > 76.3 µM
- TGI (NCI-H23 lung): > 93.5 µM
- TGI (NCI-H460 lung): > 100 µM
- TGI (NCI-H522 lung): 96.6 µM
- TGI (NCI/ADR-RES ovarian): > 100 µM
- TGI (OVCAR-3 ovarian): 73.2 µM
- TGI (OVCAR-4 ovarian): > 100 µM
- TGI (OVCAR-5 ovarian): > 100 µM
- TGI (OVCAR-8 ovarian): > 100 µM
- TGI (PC-3 prostate): > 100 µM
- TGI (RPMI-8226 leukemia): > 80.7 µM
- TGI (RXF 393 renal): > 100 µM
- TGI (SF-268 CNS): > 64.7 µM
- TGI (SF-295 CNS): > 100 µM
- TGI (SK-MEL-2 melanoma): 45.8 µM
- TGI (SK-MEL-28 melanoma): > 100 µM
- TGI (SK-MEL-5 melanoma): > 100 µM
- TGI (SK-OV-3 ovarian): > 100 µM
- TGI (SN12C renal): 56.8 µM
- TGI (SNB-19 CNS): > 100 µM
- TGI (SNB-75 CNS): > 86.7 µM
- TGI (SNB-78 CNS): 77.3 µM
- TGI (SR leukemia): 61.2 µM
- TGI (SW-620 colon): > 100 µM
- TGI (T-47D breast): > 100 µM
- TGI (TK-10 renal): > 100 µM
- TGI (U251 CNS): > 100 µM
- TGI (UACC-257 melanoma): > 96.7 µM
- TGI (UACC-62 melanoma): > 100 µM
- TGI (UO-31 renal): > 100 µM
- TGI (XF 498 CNS): 59.2 µM

SMILES: COc1ccc(C2Oc3ccc(O)cc3[C@@H]2C)cc1OC (stereo not given in full)
- TGI (786-0 renal): > 100 µM
- TGI (A549 NSCLC): > 100 µM
- TGI (ACHN renal): > 100 µM
- TGI (CAKI-1 renal): > 100 µM
- TGI (CCRF-CEM leukemia): > 100 µM
- TGI (COLO 205 colon): > 100 µM
- TGI (DLD-1 colon): > 100 µM
- TGI (DMS 114 small cell lung): > 100 µM
- TGI (DMS 273 small cell lung): > 100 µM
- TGI (EKVX NSCLC): > 100 µM
- TGI (HCC-2998 colon): > 100 µM
- TGI (HCT-116 colon): > 100 µM
- TGI (HCT-15 colon): > 100 µM
- TGI (HL-60(TB) leukemia): > 100 µM
- TGI (HOP-18 NSCLC): > 100 µM
- TGI (HOP-62 NSCLC): > 100 µM
- TGI (HOP-92 NSCLC): > 100 µM
- TGI (HT29 colon): > 100 µM
- TGI (IGROV1 ovarian): > 100 µM
- TGI (K-562 leukemia): > 100 µM
- TGI (KM12 colon): > 100 µM
- TGI (KM20L2 colon): > 100 µM
- TGI (LOX IMVI melanoma): > 100 µM
- TGI (LXFL 529 NSCLC): > 100 µM
- TGI (M14 melanoma): > 100 µM
- TGI (M19-MEL melanoma): > 100 µM
- TGI (MALME-3M melanoma): > 100 µM
- TGI (MOLT-4 leukemia): > 100 µM
- TGI (NCI-H226 lung): > 100 µM
- TGI (NCI-H23 lung): > 100 µM
- TGI (NCI-H460 lung): > 100 µM
- TGI (NCI-H522 lung): > 100 µM
- TGI (OVCAR-3 ovarian): > 100 µM
- TGI (OVCAR-4 ovarian): > 100 µM
- TGI (OVCAR-5 ovarian): > 100 µM
- TGI (OVCAR-8 ovarian): > 100 µM
- TGI (RPMI-8226 leukemia): > 100 µM
- TGI (RXF 393 renal): > 100 µM
- TGI (SF-268 CNS): > 100 µM
- TGI (SF-295 CNS): > 100 µM
- TGI (SF-539 CNS): > 100 µM
- TGI (SK-MEL-2 melanoma): > 100 µM
- TGI (SK-MEL-28 melanoma): > 100 µM
- TGI (SK-MEL-5 melanoma): > 100 µM
- TGI (SK-OV-3 ovarian): > 100 µM
- TGI (SNB-19 CNS): > 100 µM
- TGI (SNB-75 CNS): > 100 µM
- TGI (SNB-78 CNS): > 100 µM
- TGI (SW-620 colon): > 100 µM
- TGI (TK-10 renal): > 100 µM
- TGI (U251 CNS): > 100 µM
- TGI (UACC-257 melanoma): > 100 µM
- TGI (UACC-62 melanoma): > 100 µM
- TGI (UO-31 renal): > 100 µM
- TGI (XF 498 CNS): > 100 µM
